From article PMC5107951 (Scientific Reports, 2016)
Where a SMILES comes first, the peptide text is derived from it. Bridges are numbered along the chain shown (N, C = ends).

Legend:
α7 nAChR [1] = biological target: α7 nAChR (Rattus norvegicus, UniProt Q05941); assay: cell-based
α7 nAChR [2] = biological target: α7 nAChR (Homo sapiens, UniProt P36544); assay: cell-based; format: binding
Chain of α7 nAChR (Homo sapiens, UniProt P36544) (P36544 23-502 limits assumed): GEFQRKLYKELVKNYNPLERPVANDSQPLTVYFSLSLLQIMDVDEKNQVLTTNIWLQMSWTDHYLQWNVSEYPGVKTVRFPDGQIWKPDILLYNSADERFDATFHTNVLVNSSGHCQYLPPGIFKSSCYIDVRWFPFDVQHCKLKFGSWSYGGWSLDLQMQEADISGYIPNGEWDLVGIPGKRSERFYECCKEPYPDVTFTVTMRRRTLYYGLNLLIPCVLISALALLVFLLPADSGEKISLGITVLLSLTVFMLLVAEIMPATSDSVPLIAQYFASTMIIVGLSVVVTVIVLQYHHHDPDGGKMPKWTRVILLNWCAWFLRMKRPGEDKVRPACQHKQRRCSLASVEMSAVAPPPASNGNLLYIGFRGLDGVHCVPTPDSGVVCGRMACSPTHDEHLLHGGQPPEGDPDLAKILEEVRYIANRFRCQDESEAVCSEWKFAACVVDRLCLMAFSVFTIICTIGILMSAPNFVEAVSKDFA

Chain of α7 nAChR (Rattus norvegicus, UniProt Q05941) (Q05941 23-502 limits assumed): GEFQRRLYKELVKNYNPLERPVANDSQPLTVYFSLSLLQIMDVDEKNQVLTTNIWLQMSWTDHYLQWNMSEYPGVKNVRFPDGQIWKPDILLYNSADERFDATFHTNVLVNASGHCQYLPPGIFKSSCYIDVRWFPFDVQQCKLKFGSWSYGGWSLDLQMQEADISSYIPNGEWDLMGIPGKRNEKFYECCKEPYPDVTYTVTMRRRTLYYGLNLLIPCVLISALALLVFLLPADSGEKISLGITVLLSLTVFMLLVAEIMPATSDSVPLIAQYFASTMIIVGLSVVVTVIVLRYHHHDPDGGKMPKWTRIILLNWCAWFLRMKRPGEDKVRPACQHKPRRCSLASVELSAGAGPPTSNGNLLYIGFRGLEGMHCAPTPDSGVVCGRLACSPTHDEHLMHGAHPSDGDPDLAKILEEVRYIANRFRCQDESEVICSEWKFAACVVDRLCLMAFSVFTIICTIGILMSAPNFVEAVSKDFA

Compound | IC50 (α7 nAChR [1]) | IC50 (α7 nAChR [2]) | displacement of [125I]-PnIA[R9, L10] by non-radioactive peptide (α7 nAChR [2])
CC(C)C[C@@H]1NC(=O)[C@H](CCCNC(=N)N)NC(=O)[C@@H]2CSSC[C@H](NC(=O)CN)C(=O)N[C@@H](CSSC[C@@H](C(N)=O)NC(=O)[C@H](Cc3ccc(O)cc3)NC(=O)[C@H](CCCNC(=N)N)NC(=O)[C@@H]3CCCN3C(=O)[C@H](CC(N)=O)NC(=O)[C@H](CC(N)=O)NC1=O)C(=O)N[C@@H](CO)C(=O)N[C@@H](CCCNC(=N)N)C(=O)N1CCC[C@H]1C(=O)N1CCC[C@H]1C(=O)N2 [PnIA[R5, R9, L10, R14]] (H-GCCSRPPCRLNNPRYC-NH2; disulfide 2-8, 3-16) | 17 ± 2 nM | – | –
CC(C)C[C@@H]1NC(=O)[C@H](CO)NC(=O)[C@@H]2CSSC[C@@H](C(N)=O)NC(=O)[C@H](Cc3ccc(O)cc3)NC(=O)[C@H](CC(=O)O)NC(=O)[C@@H]3CCCN3C(=O)[C@H](CC(N)=O)NC(=O)[C@H](CC(N)=O)NC(=O)[C@H](C)NC(=O)[C@H](CCCNC(=N)N)NC(=O)[C@H](CSSC[C@H](NC(=O)CN)C(=O)N2)NC(=O)[C@@H]2CCCN2C(=O)[C@@H]2CCCN2C1=O [PnIA[R9]] (H-GCCSLPPCRANNPDYC-NH2; disulfide 2-8, 3-16) | 27 ± 10 nM | 1490 nM | –
CC(C)C[C@@H]1NC(=O)[C@H](CCCNC(=N)N)NC(=O)[C@@H]2CSSC[C@H](NC(=O)CN)C(=O)N[C@@H](CSSC[C@@H](C(N)=O)NC(=O)[C@H](Cc3ccc(O)cc3)NC(=O)[C@H](CC(=O)O)NC(=O)[C@@H]3CCCN3C(=O)[C@H](CC(N)=O)NC(=O)[C@H](CC(N)=O)NC1=O)C(=O)N[C@@H](CO)C(=O)N[C@@H](CC(C)C)C(=O)N1CCC[C@H]1C(=O)N1CCC[C@H]1C(=O)N2 [PnIA[R9, L10]] (H-GCCSLPPCRLNNPDYC-NH2; disulfide 2-8, 3-16) | 27 ± 11 nM | – | 100%
